In US11129820B2, “Ferroportin-inhibitor salts” (Vifor (International) AG, priority 2017, dated 2021):
Values joined by “and” are separate entries in the source; they are usually repeats but may differ in a detail not shown here. Identical values can stand only once. Marks after values point to notes of the source that are not given here.

Tests used:
[1] = tested on: naïve WT C57BL/6 mice; experiment: Hypoferremia in naïve mice; format: in vivo, mouse; details: Mus musculus, po, 3 h, relative to vehicle, read-out: Serum Iron Reduction at 3 h (%); for inhibition in vivo at 10 mg/kg: Dose 10 mg/kg p.o.; for inhibition in vivo at 30 mg/kg: Dose 30 mg/kg p.o.; for inhibition in vivo at 100 mg/kg: Dose 100 mg/kg p.o.
Description: Injection of synthetic hepcidin in wild-type (WT) naïve mice results in a reduction of serum iron levels (40-50% from the vehicle control) with a maximal effect at 3-4 hours post treatment (Rivera, 2005; FIG. 12A).
Female C57BL/6 mice (Janvier, France) at age of 9 weeks are fed a standard diet (Harlan Provimi Kliba 3436) and treated per os (p.o.) with compounds or the corresponding amount of vehicle at a volume of 10 ml/kg body weight. Fpn inhibitors are formulated in 0.5% methylcellulose/water or 20% cremophor EL/water and dosed p.o. in mice at 10, 30 or 100 mg/kg body weight. Three hours later, mice are pre-terminally anesthetized in isoflurane chambers and blood is collected by retro-orbital bleeding. Mice are sacrificed by cervical dislocation and spleens, livers and duodena were harvested and used for biomarker analysis. All experiments are conducted in compliance with the license approved by the responsible veterinarian authorities. Serum is isolated by centrifugation of blood into gel-containing microtainers and serum iron is determined by the MULTIGENT Iron assay (Abbott Diagnostics, 6K95). Eight mice per group are used and one-way ANOVA with Bonferroni's multiple comparison test is performed to analyze the statistical differences between the experimental groups.
Table 6 Efficacy of Fpn inhibitors tested in the naïve mouse hypoferremia model. Serum iron reduction induced by selected ferroportin inhibitors dosed p.o. in naïve WT C57BL/6 mice at 10, 30 and 100 mg/kg. Relative serum iron reduction at 3 h after dosing was calculated by subtracting the average of serum iron values of animals dosed with the Fpn inhibitor from that of vehicle-treated animals. The difference in average serum iron values between vehicle and compound treated groups was then divided by the average of serum iron of the vehicle control group and listed as percentage.

[2] = tested on: anemic Wistar rats; experiment: Prevention of iron absorption in anemic rats; format: in vivo, rat; details: n=5
Description: To assess the in vivo efficacy of ferroportin (Fpn) inhibitors to block iron absorption, a series of Fpn inhibitors is tested in an anemic rat model for iron absorption. Wistar rats (3-4 weeks old, n=5, Janvier Labs) are fed a low iron diet (Provimi-Kliba, Cat. 2039) until their hemoglobin (Hb) values reach 7-8 g/dl one day before dosing of the Fpn inhibitor compounds. One hour before oral application of 0.5 mg/kg of ferrous sulfate, test compounds formulated in methyl cellulose or Cremophor are dosed orally. Blood samples are taken by tail vein puncture one hour before administration of iron (−1 h), immediately after dosing of the Fpn inhibitors (0 h) and one hour (1 h), three hours (3 h) and occasionally up to 6 hours (6 h) after dosing of the test compounds. Serum iron levels are measured (Abbott Diagnostics, Cat. 6K95) and inhibition of the rise of serum iron three hours after dosing of the test compound is calculated as a measure for efficacy of the Fpn inhibitors in blocking iron absorption (Table 7).

[3] = tested on: beta2-microglobulin deficient (b2m−/−) mice; experiment: Correction of hyperferremia in beta2-microglobulin deficient mice; format: in vivo, mouse
Description: Female and male homozygous b2m−/− mice are supplied from Jackson Laboratories (B6.129P2-B2mtm1Unc/J, Stock Number: 002087) at age of 6 to 7 weeks and fed standard diet (Harlan Provimi Kliba 3436) ad libitum. Age and gender matched WT C57BL/6 mice are supplied by Charles River. To study the acute effects of ferroportin (Fpn) inhibitors in iron overload b2m−/− mice are treated with compounds or the corresponding amount of vehicle at a volume of 10 ml/kg body weight. Fpn inhibitor compounds are formulated in 0.5% methylcellulose/water or 20% cremophor EL/water and dosed p.o. in mice at 50 mg/kg body weight. WT controls received only vehicle. Three hours later, mice are pre-terminally anesthetized in isoflurane chambers and blood is collected by retro-orbital bleeding. Mice are sacrificed by cervical dislocation and spleens, livers and duodena are harvested and used for biomarker analysis. All experiments are performed in compliance with license approved by the responsible veterinarian authorities. Serum is isolated by centrifugation of blood into gel-containing microtainers (BD Biosciences) and serum iron is determined by the MULTIGENT Iron assay (Abbott Diagnostics, Cat. 6K95). Four to nine mice per group are used and one-way ANOVA with Bonferroni's multiple comparison test is applied to analyze the statistical differences between the experimental groups.
Blood is collected 1 (#) or 3 (##) hours after oral administration of the indicated doses of Fpn inhibitors to beta2-microglobulin deficient mice and serum iron concentrations are measured. Relative reduction (%) of serum iron levels are shown, which were calculated by subtracting the average of serum iron values of animals dosed with the Fpn inhibitor from that of vehicle-treated animals. The difference in average serum iron values between vehicle and compound treated groups was then divided by the average of serum iron of the vehicle control group and listed as percentage. Values are listed separately for female (♀) and male (♂) animals, because a marked sex-dependent difference in efficacy was noted. Statistically significant (2-way ANOVA with Bonferroni post test) differences observed between compound-treated and vehicle-treated groups are indicated (*** p<0.001; ** p<0.01, p<0.05).

[4] = tested on: beta2-microglobulin deficient (b2m−/−) mice; experiment: Prevention of iron overload in beta2-microglobulin deficient mice; format: in vivo, mouse; details: 14 days
Description: In addition, feeding 3 week old b2m−/− mice a diet with low iron content (LID) immediately after weaning prevents liver iron loading by age of 6-7 weeks. The efficacy of the Fpn inhibitors to prevent liver iron accumulation in b2m−/− mice is investigated. Three weeks old b2−/− mice fed LID are dosed with either Fpn inhibitor or vehicle (methylcellulose; 10 ml/kg). Mice have access to drinking water supplemented with 1 mM ^58Fe(II)-sulfate and 10 mM ascorbic acid. Dosing of Fpn inhibitor or vehicle followed by exposure to iron-containing water is repeated for 14 days. Mice are euthanized and the liver and spleen iron contents are analyzed by ICP-OES (all iron isotopes) and liver tissue is also analyzed for ^58Fe concentration (ICP-MS).
Livers and spleens are collected after 14 day treatment (p.o.; b.i.d) of beta2-microglobulin deficient mice with the indicated doses of Fpn inhibitors. Total liver and spleen tissue iron concentrations are measured using ICP-OES and ^58Fe liver concentrations are determined with ICP-MS. Relative changes (%) of tissue iron levels are calculated by normalizing the difference between the averages of tissue iron values of animals dosed with the Fpn inhibitors and those of vehicle-treated animals with the average of vehicle controls.

[5] = female ♀, 20 mg/kg oral, blood collection time not marked
[6] = female ♀, 60 mg/kg oral, blood collection time not marked
[7] = male ♂, 20 mg/kg oral, blood collection time not marked
[8] = male ♂, 60 mg/kg oral, blood collection time not marked

SMILES	inhibition in vivo at 10 mg/kg [1]	inhibition in vivo at 30 mg/kg [1]	inhibition in vivo at 100 mg/kg [1]	Serum Iron Inhibition (%) at 3 h ([2]; Dose 3 mg/kg oral)	Serum Iron Inhibition (%) at 3 h ([2]; Dose 10 mg/kg oral)	Serum Iron Inhibition (%) at 3 h ([2]; Dose 30 mg/kg oral)	Serum Iron Reduction (%) [3, 5]	Serum Iron Reduction (%) [3, 6]	Serum Iron Reduction (%) [3, 7]	Serum Iron Reduction (%) [3, 8]	Total Liver Iron Reduction (%) ([4]; female ♀, 20 mg/kg p.o. b.i.d.)	Total Spleen Iron Increase (%) ([4]; female ♀, 20 mg/kg p.o. b.i.d.)	^58Fe Liver Iron Reduction (%) ([4]; female ♀, 20 mg/kg p.o. b.i.d.)	Total Liver Iron Reduction (%) ([4]; female ♀, 60 mg/kg p.o. b.i.d.)	Total Spleen Iron Increase (%) ([4]; female ♀, 60 mg/kg p.o. b.i.d.)	^58Fe Liver Iron Reduction (%) ([4]; female ♀, 60 mg/kg p.o. b.i.d.)	Total Liver Iron Reduction (%) ([4]; male ♂, 20 mg/kg p.o. b.i.d.)	Total Spleen Iron Increase (%) ([4]; male ♂, 20 mg/kg p.o. b.i.d.)	^58Fe Liver Iron Reduction (%) ([4]; male ♂, 20 mg/kg p.o. b.i.d.)	Total Liver Iron Reduction (%) ([4]; male ♂, 60 mg/kg p.o. b.i.d.)	also measured
O=C(NCc1ncccc1F)c1cnc(CCNCCc2nc3ccccc3[nH]2)o1 [Example Compound No. 1]	0%	28%	51%	2.1%	42.6** %	64.9*** %	31** %	52** %	31** %	59** %	−1%	21%	4%	15%	65%	59%	16%	28%	−8%	25%	Total Spleen Iron Increase (%) ([4]; male ♂, 60 mg/kg p.o. b.i.d.): 49%; ^58Fe Liver Iron Reduction (%) ([4]; male ♂, 60 mg/kg p.o. b.i.d.): 22%
O=C(NCc1ncccc1F)c1cnc(C2CN(CCc3nc4ccccc4[nH]3)C2)o1 [Example Compound No. 2]	9%	26%	50%	−3%	29** %	57*** %	27%	57** %	29%	66** %	26%	13%	60** %	45%	1%	77*** %	10%	18%	24%	28%	Total Spleen Iron Increase (%) ([4]; male ♂, 60 mg/kg p.o. b.i.d.): −20%; ^58Fe Liver Iron Reduction (%) ([4]; male ♂, 60 mg/kg p.o. b.i.d.): 70%
O=C(NCc1ncccc1F)c1csc(CCNCc2nc3ccccc3[nH]2)n1 [Example Compound No. 40]	10%	30%	50%		32** %	53*** %					32%	50* %	44%				31%		53* %		Serum Iron Inhibition (%) at 3 h ([2]; Dose 100 mg/kg oral): 97*** %; Correction of elevated serum iron, in words ([3]; b2m−/− mice, 50 mg/kg p.o., 3 h): corrected the elevated serum iron to the levels observed in WT controls; Serum Iron Reduction (%) ([3]; female ♀, 20 mg/kg oral, 1 hour (#)): 0%; Serum Iron Reduction (%) ([3]; female ♀, 60 mg/kg oral, 1 hour (#), 60 mg/kg): 13% and 10%; Serum Iron Reduction (%) ([3]; male ♂, 20 mg/kg oral, 1 hour (#)): 35** %; Serum Iron Reduction (%) ([3]; male ♂, 60 mg/kg oral, 1 hour (#), 60 mg/kg): 32** % and 58** %
